# Experimental data as given in patent US11026984B2, “Use of isothiocyanate derivatives as modulators of peripheral and neuropathic pain” (Indena S.P.A., priority 2015, dated 2021).
# System: oxaliplatin induced hyperalgesia in the mouse
# Experiment: Cold plate test, oxaliplatin induced hyperalgesia in mice
# Format: in vivo
# Conditions: for Licking latency, 15 min after treatment / Licking latency, 30 min after treatment / Licking latency, 45 min after treatment / Licking latency, 60 min after treatment: day 14, oxaliplatin-treated mice; for Licking latency, Pre-test (48 hrs after last oxaliplatin adm.): baseline before treatment, oxaliplatin 2.4 mg/kg i.p., mean of 10 mice
# Experimental: The acute oral effect of Moringa oleifera L. seeds extract and purified GMG and GMG-ITC on oxaliplatin induced hyperalgesia in mice (Cold plate test) were evaluated.
# The method utilized is a modification of that described by Cavalletti et al. (Cavalletti G. et al., Eur. J. Cancer 37(18), 2457, 2001). Oxaliplatin (2.4 mg/kg) was dissolved in 5% glucose solution and administered i.p. for 5 consecutive days every week for 14 days. On day 14, the test products were suspended in 1% CMC and administered orally. Pregabalin was used, in the same experimental conditions, as a reference active compound at the dose of 15 mg/kg s.c. dissolved in saline.
# Pain-related behavior (i.e. lifting and licking of the hind paw) were observed and the time (seconds) of the first sign was recorded.
# [1] = group later given 10 mg kg^-1 orally
SMILES,"Licking latency, 15 min after treatment (10 mg kg^-1 oral, acute)","Licking latency, 30 min after treatment (10 mg kg^-1 oral, acute)","Licking latency, 45 min after treatment (10 mg kg^-1 oral, acute)","Licking latency, 60 min after treatment (10 mg kg^-1 oral, acute) [s]","Licking latency, Pre-test (48 hrs after last oxaliplatin adm.) [1] [s]","Licking latency, 15 min after treatment (15 mg kg^-1 s.c.)","Licking latency, 30 min after treatment (15 mg kg^-1 s.c.)","Licking latency, 45 min after treatment (15 mg kg^-1 s.c.)","Licking latency, 60 min after treatment (15 mg kg^-1 s.c.) [s]","Licking latency, Pre-test (48 hrs after last oxaliplatin adm.) (group later given 15 mg kg^-1 s.c.) [s]"
"C[C@@H]1O[C@@H](Oc2ccc(C/C(=N/OS(=O)(=O)O)S[C@@H]3O[C@H](CO)[C@@H](O)[C@H](O)[C@H]3O)cc2)[C@H](O)[C@H](O)[C@H]1O [GMG, 4-(α-L-rhamnosyloxy)-benzyl glucosinolate]",21.1 ± 1.9^^ s,16.2 ± 0.7^ s,15.1 ± 1.3^ s,13.5 ± 2.3,10.3 ± 0.5,–,–,–,–,–
"C[C@@H]1O[C@@H](Oc2ccc(CN=C=S)cc2)[C@H](O)[C@H](O)[C@H]1O [GMG-ITC, 4-(α-L-rhamnosyloxy)-benzyl isothiocyanate]",20.9 ± 1.8^^ s,16.0 ± 0.6^ s,15.0 ± 1.2^ s,13.3 ± 2.1,10.2 ± 0.4,–,–,–,–,–
"CC(C)C[C@H](CN)CC(=O)O [pregabalin, reference compound]",–,–,–,–,–,19.9 ± 1.9^ s,16.1 ± 0.6^ s,14.9 ± 1.3^ s,13.1 ± 2.0,11.0 ± 0.7
